The values that follow come from patent US5428038A, “Benzopyranones, a method for producing them and uses therefor” (Dr. Willmar Schwabe GmbH & Co., priority 1991, dated 1995).

Each structure is given as a SMILES string.

For one assay, the system named is NMDA-induced death. Nature of the assay: NMDA test (25 mg/kg i.v.), prevention of NMDA-induced death (neuroprotective efficacy). In kind it is in vivo, male NMRI mice. The note with it: Mus musculus, po, 1 h; dose protecting 50% of animals against NMDA-induced death one hour after application; NMDA 25 mg/kg i.v. As for the experimental part: In order to determine the neuroprotective and anticonvulsive activity of the compounds in accordance with the invention of the general formula I, two slightly different methods were employed as follows: […]
1. In order to determine the neuroprotective efficacy NMDA at a rate of 25 mg/kg/10 ml was administered intravenously to male NMRI mice with a body weight of 20 to 25 g. As a consequence of this application the animals suffer clonic and partly tonic convulsions, which lead to death. As a criterion for the efficacy of the investigated compounds prevention of death is used.
All animals used in the investigations had free access to food and water prior to the experiments. The test and reference substances were all administered as a suspension in 0.2% agar or water, partly by the intermediary of solution promoters such as for instance PEG-400, perorally using an esophageal probe. Control animals received the same volumes of the solvent with optional solution promoters. One hour after the application of the substance NMDA was administered intravenously and the animals observed for the occurrence of convulsions.
In table 1 the results of the tests (NMDA 25 mg i.v.) performed in accordance with method 1 are compiled with dosages of 5-100 mg of the compounds in accordance with the invention per kg of body weight as compared with known NMDA-antagonists. As a percentage efficacy the percentage of surviving animals is used.
The determination of the ED50 values was performed in accordance with the method described in Lichtfield and Wilcoxon, J. Pharmacol. exp. Therapeut. 96, 99 (1949) in each case with 4 to 5 groups of 10 animals per dosage rate.
Consider `COc1cccc(N2CCN(CCCOc3cc4c5c(c(=O)oc4cc3OC)CCC5)CC2)c1` [Example 55, 2,3-dihydro-7-methoxy-8-{3-[4-(3-methoxyphenyl)-1-piperazinyl]propoxy}cyclopenta[c][1]benzopyran-4(1H)-one], for which the ED50 (usually the dose at which the effect has come halfway, by size or by number of responders) stood at 1.1 mg/kg.
The same measure, in the same setting: with `COc1cc2oc(=O)c(-c3ccccc3)c(C)c2cc1OCCCN1CCN(c2ccccc2)CC1` [Example 41, 7-methoxy-4-methyl-3-phenyl-6-[3-(4-phenyl-1-piperazinyl)propoxy]-2H-1-benzopyran-2-one] the figure was 4.8 mg/kg.

The same assay, now with this note: Mus musculus, po; 5 mg/kg p.o. 1 h before test; NMDA 25 mg/kg i.v.; read-out: Protective action (percentage of surviving animals).
For `COc1cccc(N2CCN(CCCOc3cc4c5c(c(=O)oc4cc3OC)CCC5)CC2)c1` [Example 55, 2,3-dihydro-7-methoxy-8-{3-[4-(3-methoxyphenyl)-1-piperazinyl]propoxy}cyclopenta[c][1]benzopyran-4(1H)-one], the responders at 5 mg/kg was 100%.
For `COc1cc2oc(=O)c(-c3ccccc3)c(C)c2cc1OCCCN1CCN(c2ccccc2)CC1` [Example 41, 7-methoxy-4-methyl-3-phenyl-6-[3-(4-phenyl-1-piperazinyl)propoxy]-2H-1-benzopyran-2-one], the responders at 5 mg/kg came to 87.5%.

The same assay, now with this note: Mus musculus, po; 25 mg/kg p.o. 1 h before test; NMDA 25 mg/kg i.v.; read-out: Protective action (percentage of surviving animals).
Turning to `COc1cc2oc(=O)c3c(c2cc1OCCCN1CCN(c2ncccn2)CC1)CCC3` [Example 63, 2,3-dihydro-7-methoxy-8-{3-[4-(2-pyrimidinyl)-1-piperazinyl]propoxy}cyclopenta[c][1]benzopyran-4(1H)-one], the responders at 25 mg/kg came out at 12.5%.
Take `COc1cc2oc(=O)c3c(c2cc1OCCCN1CCN(c2ccccn2)CC1)CCC3` [Example 62, 2,3-dihydro-7-methoxy-8-{3-[4-(2-pyridinyl)-1-piperazinyl]propoxy}cyclopenta[c][1]benzopyran-4(1H)-one]: the responders at 25 mg/kg worked out at 87.5%.
As for `CCOc1cc2ccc(=O)oc2cc1OCCCN1CCC(c2ccccc2)CC1` [Example 11, 6-ethoxy-7-[3-(4-phenyl-1-piperidinyl)propoxy]-2H-1-benzopyran-2-one], the responders at 25 mg/kg is 62.5%.
On the same count and under the same terms, the result for `COc1cc2oc(=O)c3c(c2cc1OCCCN1CCN(c2cccc(C)c2C)CC1)CCC3` [Example 53, 8-{3-[4-(2,3-dimethylphenyl)-1-piperazinyl]propoxy}-2,3-dihydro-7-methoxy-cyclopenta[c][1]benzopyran-4(1H)-one] reads 50%.
Regarding `COc1cc2oc(=O)ccc2cc1OCCCN1CCN(c2ccccc2)CC1` [Example 1, 7-methoxy-6-[3-(4-phenyl-1-piperazinyl)propoxy]-2H-1-benzopyran-2-one], the responders at 25 mg/kg was 100%.
On to `O=c1ccc2cc(OC3CCCC3)c(OCCCN3CCN(c4ccccc4)CC3)cc2o1` [Example 5, 6-(cyclopentyloxy)-7-[3-(4-phenyl-1-piperazinyl)propoxy]-2H-1-benzopyran-2-one], for which the responders at 25 mg/kg is 87.5%.
Take `CCCCc1c(C)c2cc(OCCCN3CCC(c4ccccc4)CC3)c(OC)cc2oc1=O` [Example 38, 3-butyl-7-methoxy-4-methyl-6-[3-(4-phenyl-1-piperidinyl)propoxy]-2H-1-benzopyran-2-one]: the responders at 25 mg/kg turned out to be 87.5%.
Take `CCCc1cc(=O)oc2cc(OC)c(OCCCN3CCC(c4ccccc4)CC3)cc12` [Example 34, 7-methoxy-6-[3-(4-phenyl-1-piperidinyl)propoxy]-4-propyl-2H-1-benzopyran-2-one]: the responders at 25 mg/kg amounted to 75%.

Still in this assay, the particulars now being: Mus musculus, po; 50 mg/kg p.o. 1 h before test; NMDA 25 mg/kg i.v.; read-out: Protective action (percentage of surviving animals).
With `COc1cc2ccc(=O)oc2cc1OCC(O)CN1CCN(c2cccc(C(F)(F)F)c2)CC1` (racemic) [Example 21, (±)-7-{2-hydroxy-3-[4-(3-trifluoromethylphenyl)-1-piperazinyl]propoxy}-6-methoxy-2H-1-benzopyran-2-one], the responders at 50 mg/kg was 62.5%.
